Values of other authors in patent publication US12582665B2, “Topical composition” (FUTURA MEDICAL DEVELOPMENTS LIMITED, priority 2020, dated 2026).

How the values were obtained:
[1] = not given; remark: listed apart in the source

C=C(C)[C@@H]1CCC(C)=C[C@H]1c1c(O)cc(CCCCC)cc1O [CBD, cannabidiol]
log P: ~+6.00 | Solubility in propylene glycol [1]: exceeding 10 % w/w
